Test results reported in ChEMBL document CHEMBL5149996, “Structure-Based Optimization and Discovery of M3258, a Specific Inhibitor of the Immunoproteasome Subunit LMP7 (β5i)” (J Med Chem, 2021).
pIC50: −log10 of the molar value.

What was measured:
[1] = molecular target: T1, Proteasome subunit beta type-8 (Homo sapiens, UniProt P28062); test: Inhibition of 20S immunoproteasome beta-5i subunit in human PBMC using Ac-ANW-luciferin substrate preincubated for 2 hrs followed by substrate addition and measured after 30 mins by luminometric analysis; format: cell-based
T1 sequence (P28062 whole entry): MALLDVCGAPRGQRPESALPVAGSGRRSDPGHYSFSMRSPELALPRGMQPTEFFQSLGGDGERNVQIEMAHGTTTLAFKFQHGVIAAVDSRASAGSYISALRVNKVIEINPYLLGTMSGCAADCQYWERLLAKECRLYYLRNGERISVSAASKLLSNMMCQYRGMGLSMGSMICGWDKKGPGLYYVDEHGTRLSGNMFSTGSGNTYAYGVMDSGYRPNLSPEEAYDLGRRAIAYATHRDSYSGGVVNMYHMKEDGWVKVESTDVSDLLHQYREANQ

[2] = molecular target: T1, Proteasome subunit beta type-8; test: Inhibition of human 20S immunoproteasome beta-5i subunit using Suc-LLVY-AMC as substrate preincubated for 2 hrs followed by substrate addition and measured after 1 hr by fluorescence intensity assay
[3] = Lipophilicity, log P of the compound; format: physicochemical; conditions: octanol/water
Homo sapiens [4] = species on record: Homo sapiens; test: Selectivity ratio of IC50 for inhibition of 20S proteasome beta5 subunit in human A549 cells to IC50 for inhibition of 20S immunoproteasome beta-5i subunit in human PBMC; format: cell-based
[5] = Intrinsic clearance in mouse liver microsomes measured per mg protein; format: ADME, Microsome; conditions: read-out: CLH
[6] = molecular target: T2, Proteasome Macropain subunit MB1 (Homo sapiens, UniProt P28074); test: Inhibition of human 20S proteasome beta5 subunit using Suc-LLVY-AMC as substrate preincubated for 2 hrs followed by substrate addition and measured after 1 hr by fluorescence intensity assay
T2 sequence (P28074 whole entry): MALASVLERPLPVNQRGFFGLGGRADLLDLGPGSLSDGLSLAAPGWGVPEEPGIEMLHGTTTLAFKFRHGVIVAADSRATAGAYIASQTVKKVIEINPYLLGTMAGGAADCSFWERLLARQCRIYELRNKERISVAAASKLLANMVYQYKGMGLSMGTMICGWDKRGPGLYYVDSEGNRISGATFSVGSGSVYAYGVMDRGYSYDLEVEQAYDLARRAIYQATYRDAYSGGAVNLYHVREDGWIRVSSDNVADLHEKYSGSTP

[7] = Clearance in mouse hepatocytes measured per million of cells; format: ADME, cell-based, Hepatocyte; conditions: read-out: CLH
[8] = molecular target: T2, Proteasome Macropain subunit MB1; test: Inhibition of 20S proteasome beta5 subunit in human A549 cells using Suc-LLVY-luciferin substrate preincubated for 2 hrs followed by substrate addition and measured after 30 mins by luminometric analysis; format: cell-based
Homo sapiens [9] = species on record: Homo sapiens; test: Selectivity ratio of IC50 for inhibition of human 20S proteasome beta5 subunit to IC50 for inhibition of human 20S immunoproteasome beta-5i subunit
[10] = molecular target: T3, Proteasome subunit beta type-6 (Homo sapiens, UniProt P28072); test: Inhibition of human 20S […] beta1 subunit using Ac-nLPnLD-AMC as substrate preincubated for 2 hrs followed by substrate addition and measured after 1 hr by fluorescence intensity assay
T3 sequence (P28072 whole entry): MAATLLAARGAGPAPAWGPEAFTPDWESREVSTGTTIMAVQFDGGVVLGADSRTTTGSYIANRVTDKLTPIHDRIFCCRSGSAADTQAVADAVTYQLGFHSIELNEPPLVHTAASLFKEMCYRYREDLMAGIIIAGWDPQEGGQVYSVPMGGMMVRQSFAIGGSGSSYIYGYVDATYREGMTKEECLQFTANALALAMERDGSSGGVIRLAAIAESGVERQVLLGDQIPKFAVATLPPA

[11] = molecular target: T4, Proteasome subunit beta type-7 (Homo sapiens, UniProt Q99436); test: Inhibition of human 20S proteasome beta2 subunit using Ac-RLR-AMC as substrate preincubated for 2 hrs followed by substrate addition and measured after 1 hr by fluorescence intensity assay
T4 sequence (Q99436 whole entry): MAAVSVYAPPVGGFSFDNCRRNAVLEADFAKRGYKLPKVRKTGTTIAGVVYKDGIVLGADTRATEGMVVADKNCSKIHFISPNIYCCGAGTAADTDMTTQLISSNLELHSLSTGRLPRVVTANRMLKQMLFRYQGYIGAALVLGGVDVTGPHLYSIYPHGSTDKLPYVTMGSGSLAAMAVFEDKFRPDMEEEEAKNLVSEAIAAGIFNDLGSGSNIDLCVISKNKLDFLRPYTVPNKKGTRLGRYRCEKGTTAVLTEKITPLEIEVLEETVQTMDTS

[12] = molecular target: T5, Proteasome subunit beta type-9 (Homo sapiens, UniProt P28065); test: Inhibition of human 20S immunoproteasome beta-1i subunit using (Ac-PAL)2R110 as substrate preincubated for 2 hrs followed by substrate addition and measured after 1 hr by fluorescence intensity assay
T5 sequence (P28065 whole entry): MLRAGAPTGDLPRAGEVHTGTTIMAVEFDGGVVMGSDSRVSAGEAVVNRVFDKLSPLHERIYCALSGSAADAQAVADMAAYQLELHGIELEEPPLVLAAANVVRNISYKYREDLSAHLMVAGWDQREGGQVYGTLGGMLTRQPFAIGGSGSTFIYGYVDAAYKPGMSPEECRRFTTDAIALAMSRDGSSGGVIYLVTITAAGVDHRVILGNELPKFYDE

[13] = molecular target: T6, Proteasome subunit beta type-10 (Homo sapiens, UniProt P40306); test: Inhibition of human 20S immunoproteasome beta-2i subunit using Ac-RLR-AMC as substrate preincubated for 2 hrs followed by substrate addition and measured after 1 hr by fluorescence intensity assay
T6 sequence (P40306 whole entry): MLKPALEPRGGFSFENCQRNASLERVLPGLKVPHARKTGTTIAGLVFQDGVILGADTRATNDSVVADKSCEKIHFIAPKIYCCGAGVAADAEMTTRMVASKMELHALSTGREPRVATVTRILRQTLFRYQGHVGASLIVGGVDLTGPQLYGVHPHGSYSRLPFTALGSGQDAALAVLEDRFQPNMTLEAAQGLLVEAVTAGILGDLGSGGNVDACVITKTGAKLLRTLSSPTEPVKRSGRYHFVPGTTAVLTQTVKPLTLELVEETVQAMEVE

[14] = Oral bioavailability in mouse at 0.5 mg/kg; format: ADME, organism-based; conditions: in vivo
[15] = Volume of distribution at steady state in iv dosed mouse; format: ADME, organism-based; conditions: in vivo
[16] = Clearance in iv dosed mouse; format: ADME, organism-based; conditions: in vivo
[17] = Distribution coefficient, log D of the compound; format: physicochemical; conditions: octanol/water
[18] = Kinetic solubility of the compound; format: physicochemical; conditions: read-out: Kinetic_solubility
[19] = Half life in iv dosed mouse; format: ADME, organism-based; conditions: in vivo
Hepatocyte [20] = test: Cytotoxicity against human primary hepatocytes assessed as depletion of ATP content up to 500 uM incubated for 48 to 72 hrs by CellTiter-Glo luminescent assay; format: toxicity, cell-based; conditions: time 48-72 hrs
HepG2 = test: Cytotoxicity against human HepG2 cells assessed as depletion of ATP content up to 500 uM incubated for 48 to 72 hrs by CellTiter-Glo luminescent assay; format: toxicity, cell-based; conditions: hepg2, 500 µM, time 48-72 hrs
Hepatocyte [21] = test: Cytotoxicity against Wistar Han rat hepatocytes assessed as depletion of ATP content up to 500 uM incubated for 48 to 72 hrs by CellTiter-Glo luminescent assay; format: toxicity, cell-based; conditions: time 48-72 hrs
[22] = Intrinsic clearance in human liver microsomes measured per mg protein; format: ADME, Microsome
[23] = Clearance in human hepatocytes measured per million of cells; format: ADME, cell-based, Hepatocyte; conditions: read-out: CLH

| Compound | pIC50 [1] | pIC50 [2] | logP [3] | Ratio IC50 (Homo sapiens [4]) | microsomal CLint [5] [µL/min/mg] | pIC50 [6] | pIC50 [8] | Ratio IC50 (Homo sapiens [9]) | other results |
| --- | --- | --- | --- | --- | --- | --- | --- | --- | --- |
| O=C(N[C@@H](Cc1coc2ccccc12)B(O)O)[C@@H]1CCCO1 | 6.40 | 6.72 | 1.9 | 38 | 34 | 4.62 | 4.82 | 128 | hepatocyte CLint [7]: 99.7 µL/min/1e6 cells |
| CC(C)C[C@H](NC(=O)CNC(=O)c1cc(Cl)ccc1Cl)B(O)O | – | 8.54 | – | – | – | – | – | – | pIC50 [10]: 7.19; pIC50 [11]: < 4.52; pIC50 [12]: 8.57; pIC50 [13]: 5.31 |
| O=C(N[C@@H](Cc1coc2ccccc12)B(O)O)[C@H]1CCOC1 | 7.26 | 7.55 | 2.1 | 54 | 16 | 5.30 | 5.52 | 175 | – |
| O=C(Cc1ccccc1)N[C@@H](Cc1coc2ccccc12)B(O)O | 7.85 | 8.68 | 3.5 | 41 | – | 6.05 | 6.24 | 419 | bioavailability [14]: 37%; Vdss ([15]; iv): 2.25 L/kg; CL ([16]; iv): 0.18 L/h/kg; logD [17]: 1; solubility kinetic [18]: > 200 µM; t1/2 ([19]; iv): 22.2 min |
| CC(C)C[C@H](NC(=O)[C@H](Cc1ccccc1)NC(=O)c1cnccn1)B(O)O [BORTEZOMIB] | – | – | – | – | – | – | – | – | Activity (Hepatocyte [20]): Toxic; Activity (HepG2): Toxic; Activity (Hepatocyte [21]): Toxic |
| CCc1cccc(C[C@H](NC(=O)[C@H](Cc2ccccc2)NC(=O)c2cnccn2)B(O)O)c1 | – | 8.77 | – | – | – | 7.39 | – | 24 | pIC50 [10]: 5.07; pIC50 [11]: < 4.52; pIC50 [12]: 7.96; pIC50 [13]: 5.40 |
| N#Cc1ccccc1CC(=O)N[C@@H](C[C@@H]1COc2ccccc21)B(O)O | 7.70 | 8.51 | 1.75 | 126 | 37 | 5.62 | 5.60 | 758 | bioavailability [14]: 13%; Vd ([15]; read-out: Vdss): 1.88 L/kg; clearance [16]: 1.97 L/h/kg; CLH [22]: < 10 µL/min/mg; logD [17]: 1.3; solubility kinetic [18]: > 200 µM; half-life [19]: 42.6 min |
| O=C(N[C@@H](Cc1coc2ccccc12)B(O)O)[C@H]1CCCO1 | 7.40 | 8.23 | 2.1 | 20 | 48 | 6.03 | 6.09 | 158 | hepatocyte CLint [7]: 90.7 µL/min/1e6 cells |
| O=C(N[C@@H](Cc1coc2ccccc12)B(O)O)[C@H]1C[C@@H]2CC[C@H]1O2 | 7.71 | 7.82 | 2.25 | 124 | 16 | 5.19 | 5.61 | 444 | hepatocyte CLint [23]: 6.6 µL/min/1e6 cells; CLH [22]: < 10 µL/min/mg; hepatocyte CLint [7]: 15.9 µL/min/1e6 cells |
| CC(C)C[C@H](NC(=O)Cc1ccccc1)B(O)O | 5.48 | 6.00 | – | 2.1 | – | 4.82 | 5.16 | 15 | – |
| COc1cccc2c(C[C@H](NC(=O)Cc3ccccc3)B(O)O)coc12 | 8.05 | 8.66 | – | 24 | – | 6.85 | 6.65 | 63 | – |
| O=C(N[C@@H](Cc1coc2ccccc12)B(O)O)[C@@H]1CCOC1 | 7.86 | 8.00 | 1.85 | 123 | 19 | 5.37 | 5.77 | 410 | hepatocyte CLint [7]: 26.7 µL/min/1e6 cells |
| O=C(Cc1ccncc1)N[C@@H](Cc1coc2ccccc12)B(O)O | 7.15 | 7.96 | – | 36 | – | 5.64 | 5.60 | 222 | – |
| O=C(Cc1ccccc1)N[C@@H](Cc1coc2c(Cl)cccc12)B(O)O | 7.38 | 8.39 | – | 49 | – | 6.07 | 5.69 | 210 | – |
| O=C(Cn1cccn1)N[C@@H](Cc1coc2ccccc12)B(O)O | 7.51 | 8.43 | – | 29 | – | 6.11 | 6.05 | 212 | – |
